# Key:
# EZH2 [1] = assay: EZH2 expression in peripheral CD4 T cells of patients with metastatic prostate cancer; format: in vivo, human; conditions: after three doses vs baseline, FIG. 2C
# Description: (§1) FIGS. 2A-2C: Ipilimumab increases EZH2 expression in T cells. (FIG. 2A) Unsupervised hierarchical cluster analysis of RNA sequencing data from the peripheral CD4 T cells of patients with metastatic melanoma before and after 3 doses of ipilimumab therapy (week 7). (FIG. 2B) Matched pair analysis of EZH2 expression before and after ipilimumab therapy. (FIG. 2C) Ezh2 expression in peripheral CD4 T cells from patients with metastatic prostate cancer at baseline and after 3 doses of ipilimumab therapy. (2 tailed student t test was used to determine significance; **p<0.01).
# (§2) Next, EZH2 expression was confirmed in peripheral CD4 T cells isolated from patients with metastatic prostate cancer at baseline and after three doses of ipilimumab (Subudhi et al., 2016). Like in patients with metastatic melanoma, increased EZH2 expression was found in CD4 T cells following ipilimumab therapy (FIG. 2C) that inversely correlated with prostate-specific antigen progression (FIG. 6). Next, EZH2 expression was evaluated on human CD4 effector T cells (CD4^+CD45RO^−CD45RA^+CCR7^−), regulatory T cells (CD4^+CD25^+FoxP3^+) and CD8 T cells sorted from peripheral blood of at baseline and post-ipilimumab therapy.
# Patient samples. Metastatic melanoma samples were obtained from patients who received ipilimumab as the standard of care. […]
# EZH2 [2] = assay: EZH2 expression in peripheral CD4 T cells of patients with metastatic melanoma (RNA sequencing); format: in vivo, human; conditions: after three doses vs baseline, FIG. 2B
# Description: as §1
# T cell activation by CD28 signaling induces EZH2 expression (DuPage et al., 2015). It was postulated that exaggerated CD28 signaling due to anti-CTLA-4 therapy would increase EZH2 expression in T cells. To test this hypothesis, peripheral CD4 T cells were isolated from patients with metastatic melanoma who received ipilimumab as the first line of therapy for metastatic disease, at baseline and after three doses of ipilimumab therapy.
# Patient samples. […]
# RNA sequencing. […] For bioinformatics analysis, the raw reads were aligned to the mm10 reference genome using TopHat2. HTSeq count was used to count the raw reads that were uniquely mapped to each gene. DESeq2 was then applied to normalize the raw read counts and identify the differentially expressed genes between the groups. […]
# EZH2 [3] = assay: flow cytometry of EZH2 expression in sorted peripheral T cell subsets before and after ipilimumab; format: in vivo, human; conditions: peripheral blood, post-ipilimumab vs baseline; FIG. 7
# Description: FIG. 7: Flow cytometry analysis of EZH2 expression on CD4^+CD45RO^−CD45RA+CCR7^− (CD4 T effector, Teff), CD4^+CD25^+FoxP3^+ (T regulatory, T-reg) and CD8 T cells derived from peripheral blood mononuclear cells of patients with metastatic melanoma at baseline and after three doses of ipilimumab. Matched pair analysis of Ezh2 expression before and after ipilimumab therapy. Student t-test was used for significance (**p<0.01, *p<0.05).
# as §2, with “Like in patients with metastatic melanoma, increased EZH2 expression was found in CD4 T cells following ipilimumab therapy (FIG. 2C) that inversely correlated with prostate-specific antigen progression (FIG. 6).” left out
# Tissue processing and flow cytometry. […] Staining with intracellular anti-Foxp3 (eBioscience, FJK-16 s), […] (eBioscience, PC61.5), antiKi-67 (eBioscience, SolA15), antiIFN-γ (BioLegend, XMG1.2), anti-TNF-α (BioLegend, MP6-XT22), and anti-EZH2 (Cell Signaling Technology, D2C9) were analyzed by flow cytometry according to the manufacturers’ instructions. Flow cytometry data were acquired on BD LSR II (BD Biosciences) and analyzed using FlowJo software (Tree Star, Ashland, Oreg.).
# [4] = patients, in combination with other immune checkpoint therapy such as Nivolumab; cited from earlier work
substance,measurement,setting,value
ipilimumab: a fully human monoclonal immunoglobulin G1 antibody that blocks cytotoxic T lymphocyte associated protein 4,EZH2 expression in CD4 T cells,EZH2 [1],increased
same,EZH2 expression in peripheral CD4 T cells,EZH2 [2],increase
same,"EZH2 expression in CD4 effector T cells, regulatory T cells and CD8 T cells",EZH2 [3],increased in all three T cell subtypes
same,side effect profile,[4],manageable side effect profile

# — US20210260051A1, “COMBINATION OF EZH2 INHIBITOR AND CHECKPOINT THERAPY FOR THE TREATMENT OF CANCER” (Board of Regents, The University of Texas System, priority 2018, published 2021)
